Test results taken from US20100062939A1, “Herbicide/Safener Combination Comprising Dimethoxytriazinyl-Substituted Difluoromethanesulfonylanilides” (BAYER CROPSCIENCE AG, priority 2008, published 2010).

How the values were obtained:
Type in all cases: in vivo
[1] = tested on: rice (cultivar: Rice Ballila); experiment: Crop plant compatibility, post-emergence, rice; settings: individual compound, no safener
Method: (§1) Seeds of crop plants were placed in sandy loam and then covered with soil. The pots were placed in a greenhouse and kept under good growth conditions for the crop plants. Two weeks after sowing, the test plants were treated at the 1-3 leaf stage. The active compounds of components (A) and (B), formulated in the form of wettable powders, were then sprayed as aqueous suspensions at various dosages onto the green parts of the plants, using an application rate of 300 l of water/ha (converted).
(§2) The visual scoring of the herbicidal effects in the combination with or without safener was carried out after the number of days stated in the tables (DAT=days after treatment). Scoring was carried out in percent in comparison to the untreated control plants (herbicidal activity in %). 0%=no herbicidal activity, 100%=complete herbicidal activity=complete kill.
(§3) The safener action was calculated by comparing the herbicidal activity in % of the herbicide combination without (individual compound) and with safener (combination). The difference of the herbicidal activity in % between the individual compound and the combination was then calculated in percent (safener action in %): 0%=no improvement by addition of safener, 100%=complete improvement by addition of safener=maximum crop plant compatibility.

[2] = tested on: barley (cultivar: Adonis); experiment: Crop plant compatibility, post-emergence, barley; settings: 17 DAT, individual compound, no safener
Method: as §1, §2, §3

wheat (cultivar: Triso) = experiment: Crop plant compatibility, post-emergence, wheat; settings: individual compound, no safener
Method: as §1, §2, §3

corn (cultivar: Oldham) = experiment: Crop plant compatibility, post-emergence, corn; settings: 17 DAT, individual compound, component A 20 g of ai/ha, no safener
Method: as §1, §2, §3

[3] = 17 DAT, component A 20 g of ai/ha

COc1nc(OC)nc(C(O)c2cccc(F)c2NS(=O)(=O)C(F)F)n1 (centres unmarked) [compound (A-3)]
Herbicidal activity in % ([1]; 10 DAT, component A 2.2 g of ai/ha): 30% | Herbicidal activity in % [1, 3]: 50% | Herbicidal activity in % ([2]; component A 6.7 g of ai/ha): 10% | Herbicidal activity in % ([2]; component A 20 g of ai/ha): 20% | Herbicidal activity in % (wheat (cultivar: Triso); 10 DAT, component A 6.7 g of ai/ha): 5% | Herbicidal activity in % (wheat (cultivar: Triso); 17 DAT, component A 2.2 g of ai/ha): 8% | Herbicidal activity in % (wheat (cultivar: Triso); [3]): 20% | Herbicidal activity in % (corn (cultivar: Oldham)): 30%
